According to US10857105B2, “Compounds and compositions for intracellular delivery of therapeutic agents” (ModernaTX, Inc., priority 2017, dated 2020):

Key:
[1] = Encapsulation efficiency of RNA in nanoparticle compositions (RIBOGREEN assay); assay type: physicochemical
Method in brief: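 Lipid nanoparticles (ionisable lipid:DSPC:cholesterol:PEG-DMG 50:10:38.5:1.5 mol %) carrying N1-methylpseudouridine luciferase or hEPO mRNA diluted to about 5 μg/mL in TE, pH 7.5, with or without 2% Triton X-100, 15 min at 37° C. RiboGreen fluorescence (ex ~480, em ~520 nm) blank-subtracted; free RNA = intact/disrupted signal.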

[2] = Particle size and polydispersity index of nanoparticle compositions (Zetasizer Nano ZS); assay type: physicochemical
Method in brief: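 Size and PDI measured by Zetasizer Nano ZS in 1×PBS (zeta potential in 15 mM PBS). Lipid nanoparticles contained test ionizable lipid:DSPC:cholesterol:PEG-DMG at 50:10:38.5:1.5 mol % with N1-methyl-pseudouridine mRNA encoding luciferase or hEPO.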

[3] = Lipid clearance: mouse liver tissue level and % dose remaining in liver after intravenous administration; assay type: in vivo; details: mouse, liver, 0.5 mg/kg
[4] = tested on: luciferase (Luc) mRNA; assay: Luciferase expression (whole body bioluminescence) after intravenous administration to mice; assay type: in vivo; details: for Novel lipid/MC3 ratio, i.v.: Table 3G, 6 hr. timepoint, relative to MC3; for Novel lipid/MC3 ratio, i.v. / Novel lipid/MC3 expression ratio, i.v.: intravenous, luciferase; for Novel lipid/MC3 expression ratio, i.v.: 6 hr. time point, relative to MC3 formulation
Method in brief: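 Mice (n=6) received lipid nanoparticle formulations carrying luciferase mRNA intravenously at 0.5 mg/kg. Whole-body bioluminescence was measured at 3, 6 and 24 h. Total flux was taken as area under the curve and expressed relative to a standard MC3 formulation.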

[5] = tested on: IL-6, IP-10; assay: Cytokine induction (IL-6, IP-10) in mice 6 hours after intravenous administration; assay type: in vivo; design: unit not given here; details: intravenous 0.5 mpk
Description: The introduction of foreign material into a mammalian body induces an innate immune response that promotes cytokine production. Such immune responses to, for example, nanoparticle compositions including therapeutic and/or prophylactics, are undesirable. The induction of certain cytokines is thus measured to evaluate the […] of nanoparticle compositions. The concentrations of various cytokines in mice upon intravenous administration of nanoparticle compositions presented in Table 1A at a dosage of 0.5 mpk was measured at 6 hours. The standard MC3 formulation and a PBS control were also tested. As is evident in Table 7, IL-6 induction was highest for compositions including Compounds 1, 3, 9, 19, and 26, while IP-10 induction was highest for compositions including Compounds 3, 4, 7, 20, and 26. IL-6 induction was lowest for compositions including Compounds 4, 11, 12, and 28. IP-10 induction was lowest for compositions including Compounds 10, 11, 12, 13, 15, 17, and 18.

[6] = tested on: luciferase (Luc) mRNA; assay: Luciferase expression after intramuscular administration to mice; assay type: in vivo; details: intramuscular, luciferase, 6 hr. time point, relative to MC3 formulation
Description: The numbers 1-7 in this figure correspond to MC3, Compounds 168-170, and 173-175 respectively.
FIGS. 18A and 18B show the results of luciferase expression measured upon intramuscular administration of various nanoparticle compositions to CD-1 mice at 0.01 mpk. FIG. 18A is a bar graph showing total flux at 6 hr after administration. The numbers above each bar indicate the expression ratio relative to MC3. […] Numbers 1-11 in the Figures refer to compositions containing the following: 1: MC3, 2: Compound 143, 3: Compound 49; 4: Compound 113; 5: Compound 61; 6: Compound 72; 7: Compound 75; 8: Compound 71; 9: Compound 128; 10: Compound 156; 11: Compound 157.
The numbers 1-9 in this figure correspond to MC3, and Compounds 178, 181, 182, 218, 198, 200, 233, and 239, respectively.
The total flux (measured by area under the curve, AUC) induced by administration of a formulation including a given lipid relative to that induced by administration of a formulation including MC3 was also measured for several lipids.
Sample formulations including modified luciferase (Luc) mRNA prepared and administered intramuscularly and the resulting expression and immunogenicity were evaluated simultaneously. Formulations including compounds according to Formula (I), (IA), (IB), (II), (IIa), (IIb), (IIc), (IId), (IIe), (IIf), (IIg), or (III) were prepared and administered at dose of and 0.01 mpk.

[7] = tested on: modified luciferase; assay: Luciferase expression in liver, lung, spleen and femur 6 hours after intravenous administration to mice; assay type: in vivo; details: 6 hours after intravenous 0.5 mpk, mice
Method in brief: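 Nanoparticle formulations of the modified luciferase were given intravenously to mice (n=3) at 0.5 mpk. Bioluminescence was measured after 6 hours as total light flux. Standard MC3 formulation and PBS run as controls.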

[8] = Table 1A, lipid:DSPC:cholesterol:PEG-DMG 50:10:38.5:1.5 mol %
[9] = Table 1D, compositions for subcutaneous administration, # formulated with hEPO mRNA
[10] = Table 1B, formulated with hEPO mRNA

SMILES	EE [1, 8] [%]	Size [2, 8] [nm]	concentration at 6 h [3] [ng/g]	concentration at 24 h [3] [ng/g]	further results
CCCCCCCCC(CCCCCCCC)OC(=O)CCCCCCCN(CCO)C(C)CCCCCCCCOC(=O)CCCCCCC (stereo not drawn) [Compound 161, Heptadecan-9-yl 8-((2-hydroxyethyl)(10-(octanoyloxy)decan-2-yl)amino)octanoate]	94.3	67.6	187	0	
CCCCCCCCCC(=O)OC(C)CCCCCCN(CCO)CCCCCCCOC(=O)C(CCCCCCCC)CCCCCCCC (stereo not drawn) [Compound 165, 7-((7-(Decanoyloxy)octyl)(2-hydroxyethyl)amino)heptyl 2-octyldecanoate]	92.9	84.6	26900	11700	Size [2, 9]: 74.3 nm; Novel lipid/MC3 ratio, i.v. [4]: 2.12
CCCCCCCCCCCOC(=O)CCCCCN(CCO)CCCCCC(=O)OC(CCCCCCCCCC)CCCCCCCCCC [Compound 185, Henicosan-11-yl 6-((2-hydroxyethyl)(6-oxo-6-(undecyloxy)hexyl)amino)hexanoate]	98.3	69.6	31200	27000	
CCCCCCCCC(CCCCCCCC)OC(=O)CCCCCCCN(CCO)CCCCCCCC(=O)OCC(C)CCCCCCC (stereo not drawn) [Compound 184, Heptadecan-9-yl 8-((2-hydroxyethyl)(8-((2-methylnonyl)oxy)-8-oxooctyl)amino)octanoate]	94.2	77.2	260	0	EE [1, 10]: 96.5%; Size [2, 10]: 85.8 nm
CCCCCCCCCOC(=O)CCCCCCCN(CCO)CCCCCCCCCC(=O)OC(CCCCCCCC)CCCCCCCC [Compound 23, Heptadecan-9-yl 10-((2-hydroxyethyl)(8-(nonyloxy)-8-oxooctyl)amino) decanoate]	92.68	104.5			Cytokine induction, IL-6 [5]: 94.00; Cytokine induction, IP-10 [5]: 1015.95; Novel lipid/MC3 expression ratio, i.m. Luc [6]: 0.30; Size ([2]; Table 1E, compositions for subcutaneous administration): 70.5 nm; Novel lipid/MC3 expression ratio, i.v. [4]: 0.04
CCCCCCCCCOC(=O)C(C)CCCCCCN(CCO)CCCCCCCC(=O)OC(CCCCCCCC)CCCCCCCC (stereo not drawn) [Compound 164, Nonyl 8-((8-(heptadecan-9-yloxy)-8-oxooctyl)(2-hydroxyethyl)amino)-2-methyloctanoate]	91.2	84.5	36000	24200	Size [2, 9]: 75.7 nm; Novel lipid/MC3 ratio, i.v. [4]: 1.24
CCCCCCCOC(=O)CCCCCCCCCN(CCO)CCCCCCCCCC(=O)OC(CCCCCC)CCCCCC [Compound 186, Heptyl 10-((2-hydroxyethyl)(10-oxo-10-(tridecan-7-yloxy)decyl)amino)decanoate]	87.2	92.2	42.8	0	
CCCCCCCCC(CCCCCCCC)C(=O)OCCCCCCCN(CCO)C(C)CCCCCCCCOC(=O)CCCCCCC (stereo not drawn) [Compound 162, 7-((2-Hydroxyethyl)(10-(octanoyloxy)decan-2-yl)amino)heptyl 2-octyldecanoate]	94.1	72.7	261	0	
CCCCCCCCC(CCCCCCCC)OC(=O)CCCCCCCN(CCO)CCCCCCCC(=O)O[C@H](C)CCCCCCCC [Compound 172, (R)-Decan-2-yl 8-((8-(heptadecan-9-yloxy)-8-oxooctyl)(2-hydroxyethyl)amino)octanoate]	95.4	77.3	16000	2990	
CCCCCCCCCC(=O)OC(C)CCCCCCN(CCO)CCCCCCCC(=O)OC(CCCCCCCC)CCCCCCCC (stereo not drawn) [Compound 98, 8-((8-(Heptadecan-9-yloxy)-8-oxooctyl)(2-hydroxyethyl)amino)octan-2-yl decanoate]	94.4		24800	13600	Size [2, 9]: 74.8 nm; Novel lipid/MC3 ratio, i.v. [4]: 3.16
CCCCCCCCCOC(=O)CCCCCCCN(CCCCCCCC(=O)OC(CCCCCCCC)CCCCCCCC)C(C)CO (stereo not drawn) [Compound 157, Heptadecan-9-yl 8-((1-hydroxypropan-2-yl)(8-(nonyloxy)-8-oxooctyl)amino)octanoate]	96.04	61			Novel lipid/MC3 expression ratio, i.m. Luc [6]: 0.79; Total Flux, Liver [7]: 2.27E+09; Total Flux, Lung [7]: 6.70E+06; Total Flux, Spleen [7]: 5.15E+07; AUC ([4]; intravenous administration (Table 3D)): 2.481E+011 p/s*h
CCCCCCCCCOC(=O)CCCCCCCN(CCO)CCCCCCCC(=O)OC(COCCCCCC)COCCCCCC [Compound 183, 1,3-Bis(hexyloxy)propan-2-yl 8-((2-hydroxyethyl)(8-(nonyloxy)-8-oxooctyl)amino)octanoate]	32.3	245.3	69.9	0	
CCCCCCCCCOC(=O)CCCCCCCN(CCO)CCCCCCCC(=O)OC(CCC1CC1CCCC)CCC1CC1CCCC (stereo not drawn) [Compound 160, 1,5-Bis(2-butylcyclopropyl)pentan-3-yl 8-((2-hydroxyethyl)(8-(nonyloxy)-8-oxooctyl)amino)octanoate]	94.0	89.0	51.5	0	
CCCCCCCCCN(CCCO)CCCCCCCC(=O)OC(CCCCCCCC)CCCCCCCC [Compound 7, Heptadecan-9-yl 8-((3-hydroxypropyl)(nonyl)amino)octanoate]	86.10	118.9			Cytokine induction, IL-6 [5]: 116.35; Cytokine induction, IP-10 [5]: 4959.16; Novel lipid/MC3 expression ratio, i.m. Luc [6]: 1.10; Total Flux, Liver [7]: 2.49E+09; Total Flux, Lung [7]: 3.95E+07; Total Flux, Spleen [7]: 4.83E+08; Novel lipid/MC3 expression ratio, i.v. [4]: 0.88
CCCCCCCCCOC(=O)C(C)CCCCCCN(CCO)CCCCCCCOC(=O)C(CCCCCCCC)CCCCCCCC (stereo not drawn) [Compound 163, 7-((2-Hydroxyethyl)(7-methyl-8-(nonyloxy)-8-oxooctyl)amino)heptyl 2-octyldecanoate]	93.2	88.3	32100	17900	Size [2, 9]: 78.0 nm; Novel lipid/MC3 ratio, i.v. [4]: 3.45
CCCCCCCCCC(C)(O)CCCCCCCCN(CCO)CCCCCCCC(=O)OC(CCCCCCCC)CCCCCCCC (stereo not drawn) [Compound 171, Heptadecan-9-yl 8-((9-hydroxy-9-methyloctadecyl)(2-hydroxyethyl)amino)octanoate]	85.0	100.5	47000	32800	
